We go through 5 molecules from patent US20240150396A1 (The Texas A&M University System, priority 2021, published 2024).

One assay has as its target human cathepsin B (Homo sapiens (Human), UniProt P07858). The assay can be described thus: Human cathepsin B inhibition, Z-FR-AMC assay. It is filed as biochemical. The settings on record: pH 5.5, 25° C. The gist of the method:
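Recombinant human enzymes were assayed at 25°C in sodium acetate pH 5.5 with 1 mM CHAPS, 1 mM EDTA, 5 mM DTT and 10% DMSO final, using the fluorogenic substrate Z-FR-AMC. AMC release (ex 360/em 460 nm) was followed over 30–60 min and converted to rates (μM/s) via an AMC standard curve.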

The target in the next assay is cruzain (Trypanosoma cruzi, UniProt P25779). The assay can be described thus: biochemical. The gist of the method:
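Fluorogenic assay at 25 °C following AMC release (ex 360/em 460 nm), with typically 0.2 nM cruzain and 10% DMSO, at pH 7.5 or 5.5 buffer with 5 mM DTT.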

The nature of assay [1]: Thiolation of inhibitors with glutathione, LCMS. It is filed as physicochemical. The settings on record: for Rate of Thiolation, k: 1 mM glutathione, 0.5 mM compound, Tris pH 8.0, 10% DMSO, room temperature. The method, then: Samples were analyzed by HPLC-MS (as described above) by injecting 0.01 mL aliquots onto a Luna […] C18(2) 100 Å, 4.6 mm, 50 mm column (Phenomenex) using the HPLC method described in the chemistry section at 0-6 h time points. […] Integration of the chromatographic peaks of the inhibitors and their GSH adducts at each time point was used to determine the rate of GSH adduct formation.

The mark [2] stands for this setting: 10% DMSO, read-out: Ki* Human Cathepsin B.
[3] abbreviates: Ki* Cruzain, obtained >10 minutes following initiation of reaction by addition of enzyme, pH 7.5.
[4] abbreviates: apparent initial inhibition constant, 25° C., pH 7.5, read-out: Ki.
Where [5] appears, read: apparent tight-binding inhibition constant, 25° C., pH 7.5, read-out: Ki*.
The mark [6] stands for this setting: conversion of EI* back to EI, from kobs replot or recovery after preincubation and dilution.
Where [7] appears, read: obtained >10 minutes following initiation of reaction by addition of enzyme, pH 7.5, read-out: Ki* Cruzain.

Structures are written as SMILES. Read-outs that look alike come from different tables or passages of the source.

Sequence of cruzain (P25779 123-467 limits assumed): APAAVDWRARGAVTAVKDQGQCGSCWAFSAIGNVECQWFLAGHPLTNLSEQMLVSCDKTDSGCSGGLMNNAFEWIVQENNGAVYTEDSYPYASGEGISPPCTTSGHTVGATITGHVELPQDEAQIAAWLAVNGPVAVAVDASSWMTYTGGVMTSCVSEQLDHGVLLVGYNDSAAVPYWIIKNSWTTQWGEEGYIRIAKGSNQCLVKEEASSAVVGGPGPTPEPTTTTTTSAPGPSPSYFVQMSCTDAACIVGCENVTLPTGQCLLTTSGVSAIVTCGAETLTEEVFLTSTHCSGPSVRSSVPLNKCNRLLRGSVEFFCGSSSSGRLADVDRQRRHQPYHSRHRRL

Regarding `O=C(N[C@@H](Cc1ccccc1)C(=O)N[C@H](/C=C/c1ccccn1)Cc1ccccc1)OCc1ccccc1` [Compound 11, Benzyl ((S)-1-Oxo-3-phenyl-1-(((S,E)-1-phenyl-4-(pyridin-2-yl)-but-3-en-2-yl)amino)propan-2-yl)carbamate], the Ki at human cathepsin B (setting [2]) was 28000 ± 4000 nM; at cruzain (setting [3]) it was 120 to 400 nM; at cruzain (setting [4]) it was 5500 ± 400 nM; at cruzain (setting [5]), 310 nM. The k4 on cruzain (setting [6]) amounted to 0.0012 ± 0.0002 s⁻¹. For the same molecule, the “Rate of Thiolation, k” value in assay [1] is “Negligible”.
With `CN1CCN(C(=O)NC(Cc2ccccc2)C(=O)NC2Cc3ccccc3OC2O)CC1` (stereo not shown) [Compound 36], the Ki on human cathepsin B (read-out: Ki* hCatB) was 1270 ± 70 nM; at cruzain (setting [7]), 47 nM. In addition, on cruzain, the “ratio of Ki* of SMAI to Ki* of its free aldehyde” value was 94. The k4 entry at cruzain (setting [6]) is on record as “(1.8±0.7)×10^−4 s^−1”. Also, the “residence time τ” value on cruzain (preincubation, dilution, recovery of cruzain activity) was found to be 26 min.
In the case of `C[n+]1ccccc1/C=C/[C@H](CCc1ccccc1)NC(=O)[C@H](Cc1ccccc1)NC(=O)OCc1ccccc1` [Compound 15, 2-((S,E)-3-((S)-2-(((Benzyloxy)carbonyl)amino)-3-phenylpropanamido)-5-phenylpent-1-en-1-yl)-1-methylpyridin-1-ium], the Ki is 37000 ± 6000 nM on human cathepsin B (setting [2]); 760 ± 40 nM at cruzain (setting [4]); 126 nM at cruzain (setting [5]); 600 ± 200 nM at cruzain (calculated from global fitting to eq 6, read-out: Ki*); 4300 ± 100 nM at cruzain (global fitting to eq 6, read-out: Ki); 120 to 400 nM on cruzain (setting [7]). Also, the Ki at cruzain (pH 5.5, 25° C., 10% DMSO, read-out: Ki* Cruzain) turned out to be 88 ± 2 nM; at cruzain (pH 5.5, read-out: Ki* Cruzain) it was 88 nM; at cruzain (replot of kobs vs inhibitor, fitting to eq 4, read-out: Ki) it was 2000 ± 900 nM. In addition, the k4 entry at cruzain (setting [6]) is “≈ 0 s^−1”; at cruzain (global fitting to eq 6), 0.00019 ± 0.00005 s⁻¹. In addition, the k3 on cruzain (fitting to eq 4) was 0.004 ± 0.001 s⁻¹; on cruzain (global fitting to eq 6), 0.0012 ± 0.0004 s⁻¹. On cruzain (pH 5.5), the “Ki lower than the values with the three human cathepsins” value was “over 10 fold”. Moreover, the “apparent rate of GSH addition relative to K11777” value in assay [1] is 8 fold. Further, the “Rate of Thiolation, k” value in assay [1] is 0.9 ± 0.067 M⁻¹ s⁻¹.
As for `C[n+]1ccccc1/C=C/[C@H](Cc1ccccc1)NC(=O)[C@H](Cc1ccccc1)NC(=O)OCc1ccccc1.[I-]` [Compound 12, 2-((S,E)-3-((S)-2-(((Benzyloxy)carbonyl)amino)-3-phenylpropanamido)-4-phenylbut-1-en-1-yl)-1-methylpyridin-1-ium Iodide], the Ki at human cathepsin B (setting [2]) was 19000 ± 4000 nM; at cruzain (setting [3]), 120 to 400 nM; on cruzain (Ki*, apparent tight-binding inhibition constant, 25° C., pH 7.5), 120 nM; at cruzain (setting [4]) it was 3800 ± 400 nM; at cruzain (setting [5]), 280 ± 80 nM. In assay [1], the “apparent rate of GSH addition relative to K11777” value is 8 fold. The “Rate of Thiolation, k” value in assay [1] worked out at 0.617 ± 0.033 M⁻¹ s⁻¹.
Take `O=C(N[C@@H](Cc1ccccc1)C(=O)N[C@H]1Cc2ccccc2OC1O)OCc1ccccc1` (stereo partly shown) [Compound 30]: the Ki turned out to be 4500 ± 100 nM at human cathepsin B (read-out: Ki* hCatB) and 49 nM at cruzain (setting [7]). For the same molecule, the “ratio of Ki* of SMAI to Ki* of its free aldehyde” value on cruzain is 110.
